From patent US20120029187A1, “HALOALKYLSULFONANILIDE DERIVATIVE” (Nissan Chemical Industries, Ltd., priority 2009, published 2012)

Key:
Format in all cases: in vivo
barnyardgrass [1] = test: Test Example 4: herbicidal effect in foliage treatment; conditions: dose 6.3 g/a, three weeks after application
Outline: (§1)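 Foliar spray, post-emergence: 14-day-old greenhouse plants (25–30° C, diluvial soil) treated with water-diluted EC at set g/a doses; visual herbicidal score at 3 wk post-application.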

large crabgrass [2] = test: as above; conditions: dose 6.3 g/a, three weeks after application
Outline: as §1

beadstraw = test: as above; conditions: dose 6.3 g/a, three weeks after application
Outline: as §1

Italian ryegrass [3] = test: as above; conditions: dose 6.3 g/a, three weeks after application
Outline: as §1

wild oat [4] = test: as above; conditions: dose 6.3 g/a, three weeks after application
Outline: as §1

water foxtail [5] = test: as above; conditions: dose 6.3 g/a, three weeks after application
Outline: as §1

common chickweed [6] = test: as above; conditions: dose 6.3 g/a, three weeks after application
Outline: as §1

common ragweed [7] = test: as above; conditions: dose 6.3 g/a, three weeks after application
Outline: as §1

giant foxtail [8] = test: as above; conditions: dose 6.3 g/a, three weeks after application
Outline: as §1

common lambsquater [9] = test: as above; conditions: dose 6.3 g/a, three weeks after application
Outline: as §1

barnyardgrass [10] = test: Test Example 3: herbicidal effects in soil treatment; conditions: dose 6.3 g/a
Outline: (§2)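 Seeds were sown in sterilized diluvial soil and covered with about 1.5 cm of soil. Compounds, formulated as emulsifiable concentrates and diluted with water, were sprayed evenly over the soil surface at set doses in g/a. Herbicidal effect was scored on a rating scale three weeks later.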

large crabgrass [11] = test: as above; conditions: dose 6.3 g/a
Outline: as §2

Italian ryegrass [12] = test: as above; conditions: dose 6.3 g/a
Outline: as §2

wild oat [13] = test: as above; conditions: dose 6.3 g/a
Outline: as §2

water foxtail [14] = test: as above; conditions: dose 6.3 g/a
Outline: as §2

common chickweed [15] = test: as above; conditions: dose 6.3 g/a
Outline: as §2

common ragweed [16] = test: as above; conditions: dose 6.3 g/a
Outline: as §2

giant foxtail [17] = test: as above; conditions: dose 6.3 g/a
Outline: as §2

common lambsquater [18] = test: as above; conditions: dose 6.3 g/a
Outline: as §2

transplanted rice = test: Test Example 1: preemergence treatment under submerged conditions, effect on crop; conditions: dose 2.52 g/a
Outline: (§3)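 Weed seeds and 2.5-leaf rice seedlings shared each flooded cup of alluvial soil. Dosing, expressed as g per are, was by pouring water-diluted emulsifiable concentrate onto the surface on sowing day. Mortality was graded 0 to 5 after three weeks' growth.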

barnyardgrass [19] = test: Test Example 1: herbicidal effects in preemergence treatment under submerged conditions; conditions: dose 2.52 g/a
Outline: as §3

bulrush [20] = test: as above; conditions: dose 2.52 g/a
Outline: as §3

ducksalad [21] = test: as above; conditions: dose 2.52 g/a
Outline: as §3

barnyardgrass [22] = test: Test Example 2: herbicidal effects during the vegetation period under submerged conditions; conditions: treatment during the vegetation period under submerged conditions; dose 2.52 g/a
Outline: (§4)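 Barnyardgrass, bulrush and ducksalad were co-sown in alluvial soil flooded to 4 cm and grown in a greenhouse at 25 to 30° C. At the 1- or 2-leaf stage, water-diluted emulsifiable concentrates went onto the water surface at set doses (g/a). Herbicidal effect was scored three weeks later on a graded scale.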

bulrush [23] = test: as above; conditions: treatment during the vegetation period under submerged conditions; dose 2.52 g/a
Outline: as §4

ducksalad [24] = test: as above; conditions: treatment during the vegetation period under submerged conditions; dose 2.52 g/a
Outline: as §4

redroot pigweed [25] = test: Test Example 4: herbicidal effect in foliage treatment; conditions: dose 6.3 g/a, three weeks after application
Outline: as §1

redroot pigweed [26] = test: Test Example 3: herbicidal effects in soil treatment; conditions: dose 6.3 g/a
Outline: as §2

SMILES: CCOC(=O)N(c1ccccc1CN1COC(C)(C)CC1=O)S(=O)(=O)C(F)(F)F [II-23, 6,6-dimethyl-3-[2-(N-ethoxycarbonyl-N-trifluoromethanesulfonyl)aminobenzyl]-1,3-oxazinan-4-one]
- A: barnyardgrass, herbicidal effect (barnyardgrass [1]): 5 (mortality of 90% or above (nearly complete death))
- D: large crabgrass, herbicidal effect (large crabgrass [2]): 5 (mortality of 90% or above (nearly complete death))
- O: beadstraw, herbicidal effect (beadstraw): 5 (mortality of 90% or above (nearly complete death))
- H: Italian ryegrass, herbicidal effect (Italian ryegrass [3]): 4 (mortality of at least 70% and less than 90%)
- F: wild oat, herbicidal effect (wild oat [4]): 0 (mortality of less than 5% (almost ineffective))
- G: water foxtail, herbicidal effect (water foxtail [5]): 5 (mortality of 90% or above (nearly complete death))
- N: common chickweed, herbicidal effect (common chickweed [6]): 4 (mortality of at least 70% and less than 90%)
- J: common ragweed, herbicidal effect (common ragweed [7]): 5 (mortality of 90% or above (nearly complete death))
- E: giant foxtail, herbicidal effect (giant foxtail [8]): 4 (mortality of at least 70% and less than 90%)
- L: common lambsquater, herbicidal effect (common lambsquater [9]): 4 (mortality of at least 70% and less than 90%)
- A: barnyardgrass, herbicidal effect (evaluation scale 0-5) (barnyardgrass [10]): 5 (mortality of 90% or above (nearly complete death))
- D: large crabgrass, herbicidal effect (evaluation scale 0-5) (large crabgrass [11]): 5 (mortality of 90% or above (nearly complete death))
- H: Italian ryegrass, herbicidal effect (evaluation scale 0-5) (Italian ryegrass [12]): 4 (mortality of at least 70% and less than 90%)
- F: wild oat, herbicidal effect (evaluation scale 0-5) (wild oat [13]): 0 (mortality of less than 5% (almost ineffective))
- G: water foxtail, herbicidal effect (evaluation scale 0-5) (water foxtail [14]): 5 (mortality of 90% or above (nearly complete death))
- N: common chickweed, herbicidal effect (evaluation scale 0-5) (common chickweed [15]): 4 (mortality of at least 70% and less than 90%)
- J: common ragweed, herbicidal effect (evaluation scale 0-5) (common ragweed [16]): 5 (mortality of 90% or above (nearly complete death))
- E: giant foxtail, herbicidal effect (evaluation scale 0-5) (giant foxtail [17]): 5 (mortality of 90% or above (nearly complete death))
- L: common lambsquater, herbicidal effect (evaluation scale 0-5) (common lambsquater [18]): 2 (mortality of at least 20% and less than 40%)
- a: transplanted rice, effect on crop (evaluation scale 0-5) (transplanted rice): 0 (mortality of less than 5% (almost ineffective))
- A: barnyardgrass, herbicidal effect (evaluation scale 0-5) (barnyardgrass [19]): 5 (mortality of 90% or above (nearly complete death))
- B: bulrush, herbicidal effect (evaluation scale 0-5) (bulrush [20]): 5 (mortality of 90% or above (nearly complete death))
- C: ducksalad, herbicidal effect (evaluation scale 0-5) (ducksalad [21]): 5 (mortality of 90% or above (nearly complete death))
- A: barnyardgrass, herbicidal effect (evaluation scale 0-5) (barnyardgrass [22]): 5 (mortality of 90% or above (nearly complete death))
- B: bulrush, herbicidal effect (evaluation scale 0-5) (bulrush [23]): 5 (mortality of 90% or above (nearly complete death))
- C: ducksalad, herbicidal effect (evaluation scale 0-5) (ducksalad [24]): 5 (mortality of 90% or above (nearly complete death))

SMILES: CCC(=O)N(c1ccccc1CN1COC(C)CC1=O)S(=O)(=O)C(F)(F)F (centres unmarked) [II-5]
- A: barnyardgrass, herbicidal effect (barnyardgrass [1]): 5 (mortality of 90% or above (nearly complete death))
- D: large crabgrass, herbicidal effect (large crabgrass [2]): 5 (mortality of 90% or above (nearly complete death))
- O: beadstraw, herbicidal effect (beadstraw): 0 (mortality of less than 5% (almost ineffective))
- H: Italian ryegrass, herbicidal effect (Italian ryegrass [3]): 3 (mortality of at least 40% and less than 70%)
- K: redroot pigweed, herbicidal effect (redroot pigweed [25]): 0 (mortality of less than 5% (almost ineffective))
- F: wild oat, herbicidal effect (wild oat [4]): 0 (mortality of less than 5% (almost ineffective))
- G: water foxtail, herbicidal effect (water foxtail [5]): 5 (mortality of 90% or above (nearly complete death))
- N: common chickweed, herbicidal effect (common chickweed [6]): 3 (mortality of at least 40% and less than 70%)
- J: common ragweed, herbicidal effect (common ragweed [7]): 5 (mortality of 90% or above (nearly complete death))
- E: giant foxtail, herbicidal effect (giant foxtail [8]): 5 (mortality of 90% or above (nearly complete death))
- L: common lambsquater, herbicidal effect (common lambsquater [9]): 3 (mortality of at least 40% and less than 70%)
- A: barnyardgrass, herbicidal effect (evaluation scale 0-5) (barnyardgrass [10]): 5 (mortality of 90% or above (nearly complete death))
- D: large crabgrass, herbicidal effect (evaluation scale 0-5) (large crabgrass [11]): 5 (mortality of 90% or above (nearly complete death))
- H: Italian ryegrass, herbicidal effect (evaluation scale 0-5) (Italian ryegrass [12]): 4 (mortality of at least 70% and less than 90%)
- K: redroot pigweed, herbicidal effect (evaluation scale 0-5) (redroot pigweed [26]): 1 (mortality of at least 5% and less than 20%)
- F: wild oat, herbicidal effect (evaluation scale 0-5) (wild oat [13]): 0 (mortality of less than 5% (almost ineffective))
- G: water foxtail, herbicidal effect (evaluation scale 0-5) (water foxtail [14]): 5 (mortality of 90% or above (nearly complete death))
- N: common chickweed, herbicidal effect (evaluation scale 0-5) (common chickweed [15]): 5 (mortality of 90% or above (nearly complete death))
- J: common ragweed, herbicidal effect (evaluation scale 0-5) (common ragweed [16]): 4 (mortality of at least 70% and less than 90%)
- E: giant foxtail, herbicidal effect (evaluation scale 0-5) (giant foxtail [17]): 3 (mortality of at least 40% and less than 70%)
- L: common lambsquater, herbicidal effect (evaluation scale 0-5) (common lambsquater [18]): 4 (mortality of at least 70% and less than 90%)
- A: barnyardgrass, herbicidal effect (evaluation scale 0-5) (barnyardgrass [19]): 5 (mortality of 90% or above (nearly complete death))
- B: bulrush, herbicidal effect (evaluation scale 0-5) (bulrush [20]): 5 (mortality of 90% or above (nearly complete death))
- C: ducksalad, herbicidal effect (evaluation scale 0-5) (ducksalad [21]): 5 (mortality of 90% or above (nearly complete death))
- A: barnyardgrass, herbicidal effect (evaluation scale 0-5) (barnyardgrass [22]): 5 (mortality of 90% or above (nearly complete death))
- B: bulrush, herbicidal effect (evaluation scale 0-5) (bulrush [23]): 5 (mortality of 90% or above (nearly complete death))
- C: ducksalad, herbicidal effect (evaluation scale 0-5) (ducksalad [24]): 5 (mortality of 90% or above (nearly complete death))
